For six molecules, IC50 and Activity results are on record in ChEMBL document CHEMBL5126638, “Resin Glycosides from Operculina hamiltonii and Their Synergism with Vinblastine in Cancer Cells” (J Nat Prod, 2022).

Activity calls are given as the source filed them. The calls are words filed in the database; no cut-off is given here. A value given as a limit tells only on which side of the number the result lay.

What all share (type): functional, cell-based
Assay [1] deals with MCF7. Nature of the assay: Enhancement of 0.003 uM vinblastine-induced cytotoxicity in human MCF7 cells assessed as growth inhibition level after 48 hrs by SRB assay. The following applies: MCF7, 48 h.
Assay [2] has as its system MCF7-VP. Briefly: Enhancement of 0.003 uM vinblastine-induced cytotoxicity in human MCF7/Vin cells assessed as growth inhibition level after 48 hrs by SRB assay.
Assay [3] deals with HeLa. Briefly: Enhancement of 0.003 uM vinblastine-induced cytotoxicity in human HeLa cells assessed as growth inhibition level after 48 hrs by SRB assay.
In assay [4] the test system is HCT-116. Nature of the assay: Enhancement of 0.003 uM vinblastine-induced cytotoxicity in human HCT-116 cells assessed as growth inhibition level after 48 hrs by SRB assay. The following applies: HCT-116, 48 h.
Assay [5] concerns MCF7. Nature of the assay: Cytotoxicity in human MCF7 cells assessed as growth inhibition level after 48 hrs by SRB assay. The following applies: MCF7, 48 h.
Assay [6] has as its system MCF7-VP. Nature of the assay: Cytotoxicity in human MCF7/Vin cells assessed as growth inhibition level after 48 hrs by SRB assay.
Assay [7] concerns HeLa. Nature of the assay: Cytotoxicity in human HeLa cells assessed as growth inhibition level after 48 hrs by SRB assay.
Assay [8] deals with HCT-116. Nature of the assay: Cytotoxicity in human HCT-116 cells assessed as growth inhibition level after 48 hrs by SRB assay. The following applies: HCT-116, 48 h.
Assay [9] has as its system MCF7. Nature of the assay: Enhancement of 0.4 uM vinblastine-induced cytotoxicity in human MCF7 cells assessed as growth inhibition level at 25 uM after 48 hrs by Microscopic visualization based assay.

Turning to `CCCCCCCCCC(=O)O[C@H]1[C@H](O[C@@H]2[C@@H](O)[C@@H](O)[C@H](O[C@H]3[C@H](O[C@@H](CCCCC)CCCCCCCCCC(=O)OC)O[C@H](C)[C@H](O)[C@@H]3O)O[C@H]2C)O[C@@H](C)[C@H](O[C@@H]2O[C@@H](C)[C@H](O)[C@@H](O)[C@H]2O)[C@H]1O[C@@H]1O[C@H](CO)[C@@H](O)[C@H](O)[C@H]1O`, the IC50 is 4.7 µM in the assay on MCF7 [1]; 10 µM in the assay on MCF7-VP [2]; 26.1 µM with HeLa [3]; 8.6 µM in the assay with HCT-116 [4]; more than 25 µM in the assay with MCF7 [5]; more than 25 µM in the assay on MCF7-VP [6]. In addition, the IC50 with HeLa [7] and with HCT-116 [8] was more than 25 µM in each case. In addition, the result with MCF7 [9] was Active.

Consider `CCCCCCCCCCCC(=O)O[C@H]1[C@H](O[C@@H]2[C@H]3OC(=O)CCCCCCCCC[C@H](CCCCC)O[C@@H]4O[C@H](C)[C@H](O)[C@H](O)[C@H]4O[C@H](O[C@H]2C)[C@@H]3O)O[C@@H](C)[C@H](O[C@@H]2O[C@@H](C)[C@H](O)[C@@H](O)[C@H]2O)[C@H]1O[C@@H]1O[C@H](CO)[C@@H](O)[C@H](O)[C@H]1O`, for which the IC50 was 15.2 µM in the assay on MCF7 [1]; 18.4 µM in the assay on MCF7-VP [2]; 26.6 µM with HeLa [3]; 17.7 µM with HCT-116 [4]; more than 25 µM with MCF7 [5]; more than 25 µM with MCF7-VP [6]. Moreover, the IC50 in the assay on HeLa [7] and in the assay with HCT-116 [8] was more than 25 µM in each case. Further, the result in the assay on MCF7 [9] was Active.

For `CCCCCCCCCCCC(=O)O[C@H]1[C@H](O[C@@H]2[C@@H](O)[C@@H](O)[C@H](O[C@H]3[C@H](O[C@@H](CCCCC)CCCCCCCCCC(=O)OC)O[C@H](C)[C@H](O)[C@@H]3O)O[C@H]2C)O[C@@H](C)[C@H](O[C@@H]2O[C@@H](C)[C@H](O)[C@@H](O)[C@H]2O)[C@H]1O[C@@H]1O[C@H](CO)[C@@H](O)[C@H](O)[C@H]1O`, the IC50 with MCF7 [1] is 4.4 µM; in the assay with MCF7-VP [2], 3.1 µM; in the assay on HeLa [3], 14.6 µM; with HCT-116 [4] it was 6.8 µM; in the assay with MCF7 [5] it was more than 25 µM; in the assay on MCF7-VP [6], more than 25 µM. Further, the 50% inhibitory concentration (IC50) in the assay with HeLa [7] and with HCT-116 [8] was more than 25 µM each time. For the same molecule, the outcome in the assay with MCF7 [9] was Active.

In the case of `COc1cc2c(c(OC)c1OC)-c1ccc(OC)c(=O)cc1[C@@H](NC(C)=O)CC2` [COLCHICINE], the IC50 turned out to be 1.57 µM with MCF7-VP [6], 0.006 µM with HeLa [7] and 0.08 µM in the assay on HCT-116 [8].

Consider `CC[C@]1(O)C[C@@H]2CN(CCc3c([nH]c4ccccc34)[C@@](C(=O)OC)(c3cc4c(cc3OC)N(C)[C@H]3[C@@](O)(C(=O)OC)[C@H](OC(C)=O)[C@]5(CC)C=CCN6CC[C@]43[C@@H]65)C2)C1` [VINBLASTINE], for which the IC50 in the assay with MCF7 [5] came out at 0.035 µM; in the assay on MCF7-VP [6], 1.63 µM; in the assay on HeLa [7], 0.004 µM; in the assay with HCT-116 [8], 0.3 µM.

`CCCCCCCCCC(=O)O[C@H]1[C@H](O[C@@H]2[C@H]3OC(=O)CCCCCCCCC[C@H](CCCCC)O[C@@H]4O[C@H](C)[C@H](O)[C@H](O)[C@H]4O[C@H](O[C@H]2C)[C@@H]3O)O[C@@H](C)[C@H](O[C@@H]2O[C@@H](C)[C@H](O)[C@@H](O)[C@H]2O)[C@H]1O[C@@H]1O[C@H](CO)[C@@H](O)[C@H](O)[C@H]1O`: the IC50 is 12.3 µM with MCF7 [1]; 19.4 µM with MCF7-VP [2]; 23.8 µM in the assay on HeLa [3]; 12.8 µM with HCT-116 [4]; more than 25 µM with MCF7 [5]; more than 25 µM in the assay with MCF7-VP [6]. The IC50 in the assay on HeLa [7] and with HCT-116 [8] was more than 25 µM in each case. In addition, in the assay with MCF7 [9], the result was Active.
